Assay results from patent US9676789B2, “Aminated derivative of homoharringtonine, preparation method therefor, and application thereof” (HANGZHOU BENSHENG PHARMACEUTICAL CO., LTD., priority 2011, dated 2017).
≈ marks a conversion by molar mass, not a printed value.

What was measured:
[1] = system: RPMI8226 (multiple myeloma); assay: MTT multiple myeloma cell growth inhibition, 72 h; type: cell-based, human; settings: Homo sapiens, RPMI-8226, RPMI8226, 72 h; for IC50: read-out: IC50; for IC90: read-out: IC90
Procedure: Multiple myeloma and lymphoma cell lines: RPMI8226 (multiple myeloma), purchased from Fuxiang Bio-tech Co. Ltd., Shanghai, China.
(§1) Obtaining 6000 well-growing leukemia cells and inoculating them into wells of a 96-well cell culture plate. The culture medium is the 1640 cell culture medium containing 10% fetal bovine serum. After adding the homoharringtonine derivatives of different concentrations and mixing uniformly, placing the plate in a carbon dioxide cell incubator (5% CO2) at 37° C. and incubating for 72 hours. Then the viable cell concentration is determined by the MTT method.

[2] = system: MG63 (osteosarcoma); assay: MTT solid tumor cell growth inhibition, 72 h; type: cell-based, human; settings: Homo sapiens, MG 63, 72 h; for IC50: read-out: IC50; for IC90: read-out: IC90
Procedure: (§2) Human solid tumor cell lines: Hep-2 ([…]), A549 (human lung cancer), CaES-17 (esophageal cancer cell), PC-3 (prostate cancer), CNE (nasopharyngeal carcinoma cell), and SK-OV-3 (ovarian cancer cell), all of which are purchased from China Center For Type Culture Collection; RKO (human colon adenocarcinoma cell), MGC 803 (human gastric cancer cell), MG63 (osteosarcoma) and U87 MG (malignant glioma cell), all of which are purchased from Fuxiang Bio-tech Co. Ltd., Shanghai, China; PANC-1 (pancreatic cancer), Huh7 (human liver cancer cell), Becap37 (human breast cancer cell), and Hela (human cervical cancer cell), all of which are donated by Cancer Research Institute of Zhejiang University, China.
(§3) Obtaining 4000 well-growing human solid tumor cells and inoculating them into wells of a 96-well cell culture plate. The culture medium is DMEM High Glucose cell culture medium containing 10% fetal bovine serum. The plate is placed in a carbon dioxide cell incubator (5% CO2) at 37° C. and incubating for 24 hours. After adding the homoharringtonine derivatives of different concentration and mixing uniformly, the plate is placed in a carbon dioxide cell incubator (5% CO2) at 37° C. and incubating for 72 hours. Then the viable cell concentration is determined by the MTT method and the cell viability (%) after drug treatment is calculated. In this experiment, the cell viability of control group (not treated with any compound) is set as 100%.

[3] = system: PANC-1 (pancreatic cancer); assay: MTT solid tumor cell growth inhibition, 72 h; type: cell-based, human; settings: Homo sapiens, PANC-1, 72 h; for IC50: read-out: IC50; for IC90: read-out: IC90
Procedure: as §2, §3

[4] = system: K562/adr (drug-resistant, chronic myeloid leukemia, CML); assay: MTT leukemia cell growth inhibition, 72 h; type: cell-based, human; settings: Homo sapiens, K562/Adr; for IC50: read-out: IC50; for IC90: read-out: IC90
Description: (§4) Leukemia cell lines: K562/adr (drug-resistant, chronic myeloid leukemia, CML), NB4 (acute promyelocytic leukemia, AML), Kasumi-1 (acute myeloid leukemia M2 type, AML-M2), Jurkat (acute lymphoblastic leukemia, ALL), all of which are donated by Cancer Research Institute of Zhejiang University, China; and H9 (acute lymphoblastic leukemia, ALL), which is purchased from China Center for Type Culture Collection.
as §1, with “method. In this experiment, the cell viability in control group (not treated with any compound) is set as 100%.” for “method.”

[5] = system: H9 (acute lymphoblastic leukemia, ALL); assay: MTT leukemia cell growth inhibition, 72 h; type: cell-based, human; settings: Homo sapiens, H9, 72 h; for IC50: read-out: IC50; for IC90: read-out: IC90
Description: as §4
as §1, with “method. In this experiment, the cell viability in control group (not treated with any compound) is set as 100%.” for “method.”

[6] = system: NB4 (acute promyelocytic leukemia, AML); assay: MTT leukemia cell growth inhibition, 72 h; type: cell-based, human; settings: Homo sapiens, NB4, 72 h; for IC50: read-out: IC50; for IC90: read-out: IC90
Description: as §4
as §1, with “method. In this experiment, the cell viability in control group (not treated with any compound) is set as 100%.” for “method.”

[7] = system: Jurkat (acute lymphoblastic leukemia, ALL); assay: MTT leukemia cell growth inhibition, 72 h; type: cell-based, human; settings: Homo sapiens; for IC50: read-out: IC50; for IC90: read-out: IC90
Description: as §4
as §1, with “method. In this experiment, the cell viability in control group (not treated with any compound) is set as 100%.” for “method.”

[8] = system: Kasumi-1 (acute myeloid leukemia M2 type, AML-M2); assay: MTT leukemia cell growth inhibition, 72 h; type: cell-based, human; settings: Homo sapiens, Kasumi-1, 72 h; for IC50: read-out: IC50; for IC90: read-out: IC90
Description: as §4
as §1, with “method. In this experiment, the cell viability in control group (not treated with any compound) is set as 100%.” for “method.”

[9] = system: RKO (human colon adenocarcinoma cell); assay: MTT solid tumor cell growth inhibition, 72 h; type: cell-based; settings: Homo sapiens; for IC50: read-out: IC50; for IC90: read-out: IC90
Procedure: as §2, §3

[10] = system: Huh7 (human liver cancer cell); assay: MTT solid tumor cell growth inhibition, 72 h; type: cell-based; settings: Homo sapiens, Huh-7, Huh7, 72 h; for IC50: read-out: IC50; for IC90: read-out: IC90
Procedure: as §2, §3

[11] = system: Becap37 (human breast cancer cell); assay: MTT solid tumor cell growth inhibition, 72 h; type: cell-based; settings: Homo sapiens, Becap37, 72 h; for IC50: read-out: IC50; for IC90: read-out: IC90
Procedure: as §2, §3

[12] = system: A549 (human lung cancer); assay: MTT solid tumor cell growth inhibition, 72 h; type: cell-based; settings: Homo sapiens, A549, 72 h; for IC50: read-out: IC50; for IC90: read-out: IC90
Procedure: as §2, §3

[13] = system: MGC 803 (human gastric cancer cell); assay: MTT solid tumor cell growth inhibition, 72 h; type: cell-based; settings: Homo sapiens, MGC 803, 72 h; for IC50: read-out: IC50; for IC90: read-out: IC90
Procedure: as §2, §3

[14] = system: U87 MG (malignant glioma cell); assay: MTT solid tumor cell growth inhibition, 72 h; type: cell-based, human; settings: Homo sapiens, U-87 MG
Procedure: as §2, §3

Structure (SMILES)	IC50 [1] [µg/mL]	IC90 [1] [µg/mL]	IC50 [2] [µg/mL]	IC90 [2] [µg/mL]	IC50 [3] [µg/mL]	IC90 [3] [µg/mL]	IC50 [4] [µg/mL]	IC90 [4] [µg/mL]	IC50 [5] [µg/mL]	IC90 [5] [µg/mL]	IC50 [6] [µg/mL]	IC90 [6] [µg/mL]	IC50 [7] [µg/mL]	IC90 [7] [µg/mL]	IC50 [8] [µg/mL]	IC90 [8] [µg/mL]	IC50 [9] [µg/mL]	IC90 [9] [µg/mL]	IC50 [10] [µg/mL]	IC90 [10] [µg/mL]	other results
COC1=C[C@]23CCCN2CCc2cc4c(cc2[C@@H]3[C@@H]1OC(=O)[C@@](O)(CCCC(C)(C)O)CC(=O)N1CCN(CCO)CC1)OCO4 [BS-HH-020]	16 (≈ 24.9 µM)	> 16	14.1 (≈ 22 µM)	> 16	> 16	> 16	> 16	> 16	> 16	> 16	7.46 (≈ 11.6 µM)	15.8 (≈ 24.5 µM)	15.1 (≈ 23.5 µM)	> 16	> 16	> 16	8.38 (≈ 13 µM)	> 16	> 16	> 16	IC50 [11]: > 16 µg/mL; IC90 [11]: > 16 µg/mL; IC50 [12]: > 16 µg/mL; IC90 [12]: > 16 µg/mL; IC50 [13]: 7.5 µg/mL (≈ 11.6 µM); IC90 [13]: > 16 µg/mL
COC1=C[C@]23CCCN2CCc2cc4c(cc2[C@@H]3[C@@H]1OC(=O)[C@@](O)(CCCC(C)(C)O)CC(=O)N1CCC(O)CC1)OCO4 [BS-HH-021]	16 (≈ 26 µM)	> 16	> 16	> 16	> 16	> 16	> 16	> 16	> 16	> 16	8 (≈ 13 µM)	16 (≈ 26 µM)	13.4 (≈ 21.8 µM)	> 16	14.6 (≈ 23.7 µM)	> 16	8.51 (≈ 13.8 µM)	> 16	> 16	> 16	IC50 [11]: > 16 µg/mL; IC90 [11]: > 16 µg/mL; IC50 [12]: > 16 µg/mL; IC90 [12]: > 16 µg/mL; IC50 [13]: > 16 µg/mL; IC90 [13]: > 16 µg/mL
COC1=C[C@]23CCCN2CCc2cc4c(cc2[C@@H]3[C@@H]1OC(=O)[C@@](O)(CCCC(C)(C)O)CC(=O)N1CCCC(O)C1)OCO4 (stereo partly shown) [BS-HH-025]	> 16	> 16	> 16	> 16	> 16	> 16	> 16	> 16	> 16	> 16	8.31 (≈ 13.5 µM)	> 16	> 16	> 16	> 16	> 16	15.3 (≈ 25 µM)	> 16	> 16	> 16	IC50 [11]: > 16 µg/mL; IC90 [11]: > 16 µg/mL; IC50 [12]: > 16 µg/mL; IC90 [12]: > 16 µg/mL; IC50 [13]: > 16 µg/mL; IC90 [13]: > 16 µg/mL
COC1=C[C@]23CCCN2CCc2cc4c(cc2[C@@H]3[C@@H]1OC(=O)[C@@](O)(CCCC(C)(C)O)CC(=O)NCc1cccs1)OCO4 [BS-HH-055]	2.1 (≈ 3.35 µM)	16 (≈ 25.5 µM)	3.83 (≈ 6.11 µM)	16 (≈ 25.5 µM)	8 (≈ 12.8 µM)	> 16	6.24 (≈ 9.96 µM)	16 (≈ 25.5 µM)	4 (≈ 6.38 µM)	10.6 (≈ 17 µM)	2.38 (≈ 3.8 µM)	7.61 (≈ 12.1 µM)	1.58 (≈ 2.52 µM)	8 (≈ 12.8 µM)	1.3 (≈ 2.07 µM)	6.68 (≈ 10.7 µM)	2.75 (≈ 4.39 µM)	6.97 (≈ 11.1 µM)	4.83 (≈ 7.71 µM)	> 16	IC50 ([14]; read-out: IC50): 6.54 µg/mL (≈ 10.4 µM); IC90 ([14]; read-out: IC90): > 16 µg/mL; IC50 [11]: 5.9 µg/mL (≈ 9.41 µM); IC90 [11]: > 16 µg/mL; IC50 [12]: 11.2 µg/mL (≈ 17.9 µM); IC90 [12]: > 16 µg/mL; IC50 [13]: 6.06 µg/mL (≈ 9.67 µM); IC90 [13]: 19 µg/mL (≈ 30.3 µM)
